Measurements as given in patent US10745382B2 (BRISTOL-MYERS SQUIBB COMPANY, priority 2015, dated 2020).
Read-outs that look alike come from different tables or passages of the source.

Biological target: T1, PD-1/PD-L1 (Homo sapiens, UniProt Q9NZQ7)
T1 construct: made in house; host or cells: HEK293T
Assay: PD-1/PD-L1 Homogenous Time-Resolved Fluorescence (HTRF) binding assay
Conditions: PD-L1-His 10 nM, PD-1-Ig 20 nM, read-out: Range or IC50
Procedure, shortened: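 Read-out is time-resolved FRET between europium cryptate-labelled anti-Ig (1 nM final) and APC-labelled anti-His (20 nM final), both dispensed onto the binding mix. Assay buffer: dPBS containing 0.1% bovine serum albumin and 0.05% Tween-20.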

T1 sequence (Q9NZQ7 with tags, fused parts or gaps): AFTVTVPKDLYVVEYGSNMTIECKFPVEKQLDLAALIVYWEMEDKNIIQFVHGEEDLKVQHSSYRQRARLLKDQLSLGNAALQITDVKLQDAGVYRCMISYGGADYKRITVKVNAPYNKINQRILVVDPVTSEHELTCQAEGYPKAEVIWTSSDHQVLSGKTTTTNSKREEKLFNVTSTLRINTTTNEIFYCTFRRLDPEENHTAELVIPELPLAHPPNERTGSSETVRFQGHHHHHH

SMILES | IC50 (value given as range class) | IC50 (numeric IC50)
Cc1c(COc2cc(OCc3ccc(F)c(F)c3)c(CNC(CO)(CO)CO)cc2Cl)cccc1-c1cccc(OCCCN2CC[C@@H](O)C2)c1C [Example 4511, (R)-2-((5-chloro-2-((3,4-difluorobenzyl)oxy)-4-((3′-(3-(3-hydroxypyrrolidin-1-yl)propoxy)-2,2′-dimethyl-[1,1′-biphenyl]-3-yl)methoxy)benzyl)amino)-2-(hydroxymethyl)propane-1,3-diol] | 0.21 to 10 nM | 
Cc1c(COc2cc(OCc3cncc(C#N)c3)c(CNC(C)(CO)CO)cc2Cl)cccc1-c1cccc(C(=O)N(C)C)c1C [Example 4035, 3′-((2-chloro-5-((5-cyanopyridin-3-yl)methoxy)-4-(((1,3-dihydroxy-2-methylpropan-2-yl)amino)methyl)phenoxy)methyl)-N,N,2,2′-tetramethyl-[1,1′-biphenyl]-3-carboxamide] | 10 to 100 nM | 
Cc1c(COc2cc(OCc3cncc(C#N)c3)c(CN[C@@](C)(CO)C(=O)O)cc2Cl)cccc1-c1cccc(O[C@H](C)CCN2CC[C@@H](O)C2)c1Cl [Example 1524] | 0.21 to 10 nM | 
Cc1c(COc2cc(OCc3cncc(C#N)c3)c(CNC(CO)CO)cc2Cl)cccc1-c1cccc(OC[C@H]2CCNC2)c1C [Example 2323, (S)-5-((4-chloro-2-(((1,3-dihydroxypropan-2-yl)amino)methyl)-5-((2,2′-dimethyl-3′-(pyrrolidin-3-ylmethoxy)-[1,1′-biphenyl]-3-yl)methoxy)phenoxy)methyl)nicotinonitrile] | 0.21 to 10 nM | 
CCN(CC)C(=O)c1cccc(-c2cccc(COc3cc(OCc4cncc(C#N)c4)c(CN4CCCC[C@H]4C(=O)O)cc3Cl)c2C)c1C [Example 4040, (S)-1-(5-chloro-2-((5-cyanopyridin-3-yl)methoxy)-4-((3′-(diethylcarbamoyl)-2,2′-dimethyl-[1,1′-biphenyl]-3-yl)methoxy)benzyl)piperidine-2-carboxylic Acid] |  | 92 nM
CCNC(=O)c1cccc(-c2cccc(COc3cc(OCc4cncc(C#N)c4)c(CNC(C)(CO)CO)cc3Cl)c2C)c1C [Example 4010, 3′-((2-chloro-5-((5-cyanopyridin-3-yl)methoxy)-4-(((1,3-dihydroxy-2-methylpropan-2-yl)amino)methyl)phenoxy)methyl)-N-ethyl-2,2′-dimethyl-[1,1′-biphenyl]-3-carboxamide] |  | 11 nM

The next lines start with the values.

IC50 (value given as range class) | IC50 (numeric IC50) | SMILES
0.21 to 10 nM |  | Cc1c(COc2cc(OCc3cncc(C#N)c3)c(CNC3(CO)CC3)cc2Cl)cccc1-c1cccc(OCCCN2CC[C@@H](O)C2)c1Cl [Example 2077, (R)-5-((4-chloro-5-((2′-chloro-3′-(3-(3-hydroxypyrrolidin-1-yl)propoxy)-2-methyl-[1,1′-biphenyl]-3-yl)methoxy)-2-(((1-(hydroxymethyl)cyclopropyl)amino)methyl)phenoxy)methyl)nicotinonitrile]
0.21 to 10 nM |  | Cc1ccc(OCCCN2CC[C@@H](O)C2)c(C)c1-c1cccc(COc2cc(OCc3cncc(C#N)c3)c(CN[C@](C)(CO)C(=O)O)cc2Cl)c1C [Example 3029, (2R)-2-((5-chloro-2-((5-cyanopyridin-3-yl)methoxy)-4-((3′-(3-((R)-3-hydroxypyrrolidin-1-yl)propoxy)-2,2′,6′-trimethyl-[1,1′-biphenyl]-3-yl)methoxy)benzyl)amino)-3-hydroxy-2-methylpropanoic Acid]
0.21 to 10 nM |  | CC(=O)N[C@@H]1CCN(CCCOc2cccc(-c3cccc(COc4cc(OCc5cncc(C#N)c5)c(CN5CCCC[C@H]5C(=O)O)cc4Cl)c3C)c2C)C1 [Example 2250, (2S)-1-(4-((3′-(3-((R)-3-acetamidopyrrolidin-1-yl)propoxy)-2,2′-dimethylbiphenyl-3-yl)methoxy)-5-chloro-2-((5-cyanopyridin-3-yl)methoxy)benzyl)piperidine-2-carboxylic Acid]
